Reference: patent publication US20210094922A1, “Dyes for Analysis of Soluble Protein Aggregates or Misfolded Protein Oligomers” (The Penn State Research Foundation, priority 2018, published 2021)

Experiments:
SOD1-A4V-Halo [1] = molecular target: T1, SOD1-A4V-Halo (Homo sapiens, UniProt P00441, A5V); assay: In vitro heat-induced aggregation of SOD1-A4V-Halo conjugates; type: biochemical
From the text: (§1) (B-C) Excitation and emission spectra of 4 (with misfolded oligomers of SOD1-A4V-Halo) and 5 (with insoluble aggregates of SOD1-A4V-Halo).
The inventors installed Halo-tag reactive warhead to 2, resulting in 5.
Target sequence in this assay (P00441 with tags, fused parts or gaps A5V): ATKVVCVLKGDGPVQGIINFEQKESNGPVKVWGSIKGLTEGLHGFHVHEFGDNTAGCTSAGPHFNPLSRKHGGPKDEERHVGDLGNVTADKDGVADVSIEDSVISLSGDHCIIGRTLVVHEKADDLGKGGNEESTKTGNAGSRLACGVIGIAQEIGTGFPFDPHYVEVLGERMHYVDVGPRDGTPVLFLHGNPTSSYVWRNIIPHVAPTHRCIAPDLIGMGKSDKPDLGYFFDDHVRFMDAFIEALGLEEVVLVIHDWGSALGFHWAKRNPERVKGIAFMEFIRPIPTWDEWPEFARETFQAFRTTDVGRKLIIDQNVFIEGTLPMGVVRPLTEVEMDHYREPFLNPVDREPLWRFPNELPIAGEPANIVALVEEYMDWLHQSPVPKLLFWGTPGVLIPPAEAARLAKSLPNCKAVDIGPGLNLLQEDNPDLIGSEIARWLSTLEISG

SOD1-A4V-Halo [2] = molecular target: T1, SOD1-A4V-Halo; assay: Two-color imaging of SOD1-A4V-Halo in HEK293T cells under MG132; type: cell-based; parameters: expressed in transfected cells; host or cells: HEK293T; details: 4 and 5 both at 0.5 μM, 5 μM MG132 for 8 h
From the text: as §1
(§2) Combination of 4 and 5 enables a two-color imaging strategy to differentiate insoluble aggregates from soluble oligomers. The inventors carried out live cell imaging experiments, wherein 4 or 5 was used to visualize aggregation of POI-Halo fusion proteins in HEK293T cells. […] To this end, the inventors labeled HEK293T cells expressing SOD1-A4V-Halo simultaneously with 4 and 5 (both at 0.5 μM) for 24 h and treated cells with 5 μM MG132 for 8 h. […] The inventors further carried out experiments using Htt-PolyQ with 110 glutamine repeats (Htt-110Q-Halo).
Target sequence in this assay (P00441 with tags, fused parts or gaps A5V limits assumed): as the sequence (P00441 with tags, fused parts or gaps A5V) above

Htt-110Q-Halo [3] = assay: Two-color imaging of Htt-110Q-Halo in HEK293T cells; type: cell-based, human; details: control
From the text: as §1, §2

Htt-110Q-Halo [4] = molecular target: T2, Htt-110Q-Halo (Homo sapiens, UniProt P42858); assay: as above; type: cell-based
T2 construct: using the Huntingtin exon 1 protein (Htt) with expansion of a polyglutamine tract within its N-terminal domain; expressed in transfected cells; host or cells: HEK293T
From the text: as §1, §2

[5] = 4 with misfolded oligomers, 5 with insoluble aggregates of SOD1-A4V-Halo

T2 sequence (P42858 with tags, fused parts or gaps): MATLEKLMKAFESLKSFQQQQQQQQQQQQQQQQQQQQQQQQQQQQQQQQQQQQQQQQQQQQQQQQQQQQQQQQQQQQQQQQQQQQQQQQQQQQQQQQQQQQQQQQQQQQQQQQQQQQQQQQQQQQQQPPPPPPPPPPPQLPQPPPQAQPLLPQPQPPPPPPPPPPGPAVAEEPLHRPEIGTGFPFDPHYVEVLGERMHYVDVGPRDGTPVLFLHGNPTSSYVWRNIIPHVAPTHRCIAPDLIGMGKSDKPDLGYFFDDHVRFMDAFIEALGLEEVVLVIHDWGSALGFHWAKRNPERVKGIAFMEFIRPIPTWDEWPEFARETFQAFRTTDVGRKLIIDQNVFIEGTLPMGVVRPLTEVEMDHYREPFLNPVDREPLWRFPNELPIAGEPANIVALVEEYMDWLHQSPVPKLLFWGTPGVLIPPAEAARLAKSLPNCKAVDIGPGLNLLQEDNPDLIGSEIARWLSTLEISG

CC1=N/C(=C\c2ccc(N(C)C)cc2)C(=O)N1CC(=O)N[C@H]1CC[C@H](C(=O)NCCOCCOCCCCCCCl)CC1 [Compound 5]
molar extinction coefficient (SOD1-A4V-Halo [1]): 23,716 M^−1·cm^−1
Em (SOD1-A4V-Halo [1]; [5]): 520 nm
Ex (SOD1-A4V-Halo [1]; [5]): 450 nm
fluorescence of perinuclear SOD1 A4V-Halo granules (SOD1-A4V-Halo [2]): dark fluorescence to a background level
fluorescence in cells co-expressing Halo-tag and Htt-110Q-mCherry (Htt-110Q-Halo [3]): fluorescence was not observed
fluorescence of Htt-110Q-Halo inclusions (Htt-110Q-Halo [4]): exhibit fluorescence from both 4 and 5
